In the assay the test system is L1210 leukemia ip in BDF1 mice, survival T/C. Description: NCI In Vivo Anticancer Drug Screen. Data for tumor model L1210 Leukemia (intraperitoneal) in B6D2F1 (BDF1) mice. The note with it: endpoint: mean survival time, higher = longer survival. The procedure, abridged: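 Mice bearing the transplanted tumor received compound or vehicle. Survival of the treated group was divided by that of the vehicle-treated control group to give the ratio.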

Setting [1] is: dose: 12.5 mg/kg/injection, schedule: Q01DX009 (ip), vehicle: saline.
The mark [2] stands for this setting: dose: 400.0 mg/kg/injection, schedule: Q01DX009 (ip), vehicle: saline.
[3] abbreviates: dose: 100.0 mg/kg/injection, schedule: Q01DX009 (ip), vehicle: Klucel (hydroxypropylcellulose) (HPC).
[4] abbreviates: dose: 100.0 mg/kg/injection, schedule: Q04DX003 (ip), vehicle: Klucel (hydroxypropylcellulose) (HPC).
The mark [5] stands for this setting: dose: 200.0 mg/kg/injection, schedule: Q01DX009 (ip), vehicle: Klucel (hydroxypropylcellulose) (HPC).
The mark [6] stands for this setting: dose: 200.0 mg/kg/injection, schedule: Q04DX003 (ip), vehicle: Klucel (hydroxypropylcellulose) (HPC).
[7] abbreviates: dose: 400.0 mg/kg/injection, schedule: Q01DX009 (ip), vehicle: Klucel (hydroxypropylcellulose) (HPC).
The mark [8] stands for this setting: dose: 400.0 mg/kg/injection, schedule: Q04DX003 (ip), vehicle: Klucel (hydroxypropylcellulose) (HPC).
The mark [9] stands for this setting: dose: 200.0 mg/kg/injection, schedule: Q01DX009 (ip), vehicle: saline.
Where [10] appears, read: dose: 100.0 mg/kg/injection, schedule: Q04DX002 (ip), vehicle: saline with Tween-80.
The mark [11] stands for this setting: dose: 200.0 mg/kg/injection, schedule: Q04DX002 (ip), vehicle: saline with Tween-80.
Setting [12] is: dose: 400.0 mg/kg/injection, schedule: Q04DX002 (ip), vehicle: saline with Tween-80.

T/C data for 17 compounds are collected here from PubChem BioAssay AID248 (DTP/NCI, 2004).

Several values for one entry are separate records, joined by “and”; a condition that tells them apart may be missing. Equal entries are not always repeated. Inconclusive results and toxic doses are left out.

Consider `N#Cc1cnc(SCc2ccccc2)nc1N`, for which the T/C is, setting by setting: (dose: 100.0 mg/kg/injection, schedule: Q01DX001 (ip), vehicle: gum acacia) 95 % of control; (dose: 100.0 mg/kg/injection, schedule: Q01DX009 (ip), vehicle: gum acacia) 95 % of control; (dose: 200.0 mg/kg/injection, schedule: Q01DX001 (ip), vehicle: gum acacia) 95 % of control; (dose: 200.0 mg/kg/injection, schedule: Q01DX009 (ip), vehicle: gum acacia) 98 % of control; (dose: 400.0 mg/kg/injection, schedule: Q01DX001 (ip), vehicle: gum acacia) 98 % of control; (dose: 400.0 mg/kg/injection, schedule: Q01DX009 (ip), vehicle: gum acacia) 107 % of control.
For the compound `O=C1NCCC/C1=N/Nc1ccccc1`, the T/C is 92 % of control (dose: 100.0 mg/kg/injection, schedule: Q04DX002 (ip), vehicle: Klucel (hydroxypropylcellulose) (HPC)); 92 % of control (dose: 200.0 mg/kg/injection, schedule: Q04DX002 (ip), vehicle: Klucel (hydroxypropylcellulose) (HPC)); 113 % of control (dose: 400.0 mg/kg/injection, schedule: Q04DX002 (ip), vehicle: Klucel (hydroxypropylcellulose) (HPC)).
On to `O=c1[nH]cc(F)c(=O)n1C1OC(CO)C(O)C1O` (centres undefined), for which the T/C was 124 % of control (dose: 0.78 mg/kg/injection, schedule: Q01DX009 (ip), vehicle: saline); 159 % of control (dose: 1.5 mg/kg/injection, schedule: Q01DX009 (ip), vehicle: saline); 152 % of control (dose: 1.56 mg/kg/injection, schedule: Q01DX009 (ip), vehicle: saline); 167 % of control (dose: 3.12 mg/kg/injection, schedule: Q01DX005 (ip), vehicle: saline); 173 % of control (dose: 3.12 mg/kg/injection, schedule: Q01DX009 (ip), vehicle: saline); 97 % of control (dose: 6.0 mg/kg/injection, schedule: Q01DX009 (ip), vehicle: saline). The T/C was 171 % of control (dose: 6.25 mg/kg/injection, schedule: Q01DX005 (ip), vehicle: saline); 204 % of control (dose: 6.25 mg/kg/injection, schedule: Q01DX009 (ip), vehicle: saline); 231 % of control under setting [1]; 107 % of control (dose: 18.8 mg/kg/injection, schedule: Q04DX003 (ip), vehicle: saline); 118 % of control (dose: 25.0 mg/kg/injection, schedule: Q01DX009 (ip), vehicle: saline); 105 % of control (dose: 25.0 mg/kg/injection, schedule: Q04DX003 (ip), vehicle: saline). For the same compound, the T/C is, setting by setting: (dose: 37.5 mg/kg/injection, schedule: Q04DX003 (ip), vehicle: saline) 110 % of control; (dose: 50.0 mg/kg/injection, schedule: Q04DX003 (ip), vehicle: saline) 110 % of control; (dose: 178.0 mg/kg/injection, schedule: Q01DX009 (ip), vehicle: saline) 165 % of control; (dose: 267.0 mg/kg/injection, schedule: Q01DX009 (ip), vehicle: saline) 163 % of control; under setting [2], 150 % of control; (dose: 600.0 mg/kg/injection, schedule: Q01DX009 (ip), vehicle: saline) 171 % of control.
On to `C(=C\n1ccnc1)/c1ccccc1`, for which the T/C reads like this: (dose: 100.0 mg/kg/injection, schedule: Q04DX003 (ip), vehicle: gum acacia) 97 % of control; (dose: 200.0 mg/kg/injection, schedule: Q04DX003 (ip), vehicle: gum acacia) 87 % of control.
For the compound `CCCCCCCCC(O)CCCC` (centres undefined), the T/C by setting is: under setting [3], 93 % of control; under setting [4], 97 % of control; under setting [5], 98 % of control; under setting [6], 105 % of control; under setting [7], 95 % of control; under setting [8], 100 % of control.
As to `CC(=O)N=C(N)N(/N=C(C)\C=N\N(C(C)=O)C(N)=NC(C)=O)C(C)=O`, the T/C runs as follows: (dose: 15.0 mg/kg/injection, schedule: Q01DX Z (ip), vehicle: carboxymethylcellulose (CMC)) 96 % of control; (dose: 30.0 mg/kg/injection, schedule: Q01DX Z (ip), vehicle: carboxymethylcellulose (CMC)) 96 % of control; (dose: 60.0 mg/kg/injection, schedule: Q01DX Z (ip), vehicle: carboxymethylcellulose (CMC)) 93 % of control and 91 % of control; (dose: 120.0 mg/kg/injection, schedule: Q01DX Z (ip), vehicle: carboxymethylcellulose (CMC)) 97 % of control and 90 % of control; (dose: 240.0 mg/kg/injection, schedule: Q01DX Z (ip), vehicle: carboxymethylcellulose (CMC)) 92 % of control; (dose: 480.0 mg/kg/injection, schedule: Q01DX Z (ip), vehicle: carboxymethylcellulose (CMC)) 94 % of control.
As for `CCc1nc(=O)c2ccccc2n1C`, the T/C is 100 % of control (dose: 1.5 mg/kg/injection, schedule: Q01DX001 (ip), vehicle: saline); 95 % of control (dose: 3.0 mg/kg/injection, schedule: Q01DX001 (ip), vehicle: saline); 107 % of control (dose: 6.0 mg/kg/injection, schedule: Q01DX001 (ip), vehicle: saline).
For the compound `COC(=O)C1CC2C(Cl)=C(Cl)C1(Cl)C2(Cl)Cl` (centres undefined), the T/C (dose: 100.0 mg/kg/injection, schedule: Q01DX009 (ip), vehicle: saline) is 107 % of control; the T/C under setting [9] was 123 % of control; the T/C under setting [2] was 102 % of control.
In the case of `COc1ccc(NC(=O)Oc2ccc(OC)cc2)cc1`, the T/C was 103 % of control under setting [3]; 97 % of control under setting [4]; 95 % of control under setting [5]; 89 % of control under setting [6]; 89 % of control under setting [7]; 91 % of control under setting [8].
Regarding `COc1cc(C(=O)Nc2ccc(F)cc2)cc(OC)c1OC`, the T/C was 92 % of control under setting [3], 97 % of control under setting [5] and 94 % of control under setting [7].
As for `COC1CCC(/C(C#N)=C/C2CCC(NC(C)=O)CC2)CC1` (centres undefined), the T/C is, setting by setting: under setting [10], 101 % of control; under setting [11], 105 % of control; under setting [12], 94 % of control.
As for `O=C(Nc1ccc(Cl)cc1)NC1CCCCC1`, the T/C is 92 % of control under setting [4], 92 % of control under setting [6] and 92 % of control under setting [8].
On to `CCCCCOc1ccc(C=Nc2ccc(C)cc2)cc1`, for which the T/C is 98 % of control under setting [3] and 103 % of control under setting [5].
Consider `CCCCN(C)/N=N/c1nc[nH]c1C(=O)OCC`, for which the T/C reads like this: (dose: 100.0 mg/kg/injection, schedule: Q01DX001 (ip), vehicle: carboxymethylcellulose (CMC)) 96 % of control; (dose: 200.0 mg/kg/injection, schedule: Q01DX001 (ip), vehicle: carboxymethylcellulose (CMC)) 109 % of control; (dose: 400.0 mg/kg/injection, schedule: Q01DX001 (ip), vehicle: carboxymethylcellulose (CMC)) 124 % of control.
Take `COc1ccc(CC(=O)N(CCNS(=O)(=O)c2ccc(C)cc2)CCOC(C)=O)cc1`: the T/C is, setting by setting: (dose: 100.0 mg/kg/injection, schedule: Q01DX001 (ip), vehicle: water) 104 % of control; (dose: 200.0 mg/kg/injection, schedule: Q01DX001 (ip), vehicle: water) 107 % of control; (dose: 400.0 mg/kg/injection, schedule: Q01DX001 (ip), vehicle: water) 96 % of control.
With `CC1CC(C)(C)OC(C)(C)O1` (centres undefined), the T/C reads like this: (dose: 50.0 mg/kg/injection, schedule: Q01DX009 (ip), vehicle: acetone) 90 % of control and 95 % of control; (dose: 100.0 mg/kg/injection, schedule: Q01DX009 (ip), vehicle: acetone) 97 % of control and 94 % of control; under setting [10], 101 % of control; (dose: 100.0 mg/kg/injection, schedule: Q04DX003 (ip), vehicle: acetone) 104 % of control and 109 % of control; (dose: 200.0 mg/kg/injection, schedule: Q01DX009 (ip), vehicle: acetone) 94 % of control and 95 % of control; under setting [11], 93 % of control. The T/C is, setting by setting: (dose: 200.0 mg/kg/injection, schedule: Q04DX003 (ip), vehicle: acetone) 95 % of control and 104 % of control; under setting [12], 104 % of control; (dose: 400.0 mg/kg/injection, schedule: Q04DX003 (ip), vehicle: acetone) 94 % of control and 95 % of control.
Consider `CCCCOC(CN)C(Cl)(Cl)Cl` (centres undefined), for which the T/C is 96 % of control and 97 % of control (dose: 6.0 mg/kg/injection, schedule: Q04DX002 (ip), vehicle: saline); 104 % of control and 87 % of control (dose: 12.0 mg/kg/injection, schedule: Q04DX002 (ip), vehicle: saline); 97 % of control and 98 % of control under setting [1]; 96 % of control and 101 % of control under setting [9]; 97 % of control (dose: 200.0 mg/kg/injection, schedule: Q04DX002 (ip), vehicle: saline).
